Data published in patent US5856435A, “Nucleic acid-containing composition, its preparation and use” (Rhone-Poulenc Rorer SA, priority 1994, dated 1999).
≈ marks a conversion by molar mass, not a printed value. Residues, ends and D or L forms follow the SMILES beside them.

Legend:
[1] = Encapsulation of the nucleic acid INV-Val13 in nanoparticles of PLA50(30)-PEG(2)
Description: The nanoparticles used in this example are diblock copolymers consisting of a poly(D,L-lactic acid) linked via an ester bond to a poly(ethylene glycol): PLAp(M)-PEG(N) where M and N are, respectively, the average molecular masses (in kD) of the PLA and the PEG, and p is the percentage of L-lactic acid. The 2 types of nanoparticles used are PLA50(30)-PEG(2) and PLA50(30)-PEG(5). These copolymers may be synthesized by any technique known to a person skilled in the art (see, for example, EP 520,889).
The nucleic acids were treated with phage T4 polynucleotide kinase (Biolabs) in the presence of [γ-^32 P]ATP (Amersham) in a kinase buffer. After 30 min of incubation at 37° C., the nucleic acid was separated from unreacted ATP by application to a Sephadex G25 column (Quick Spin) and centrifugation.
This Example describes the encapsulation of the nucleic acid INV-Val13 in a nanoparticle of PLA50 (30)-PEG(2) in the presence or absence of oligopeptide (LKKL)10 (SEQ ID NO:6).
The polymer used, (PLA50(30)-PEG(2)), was solubilized in 1 ml of acetone at a concentration of 10 g/l. The isotopic dilution of the nucleic acid (final concentration 10^-5 M) was added, followed by the oligopeptide (at a concentration such that R=1). The organic solution obtained was then poured dropwise into 5 ml of an aqueous solution (50 mM Tris-HCl buffer pH 7.4) with stirring. […]

[2] = test system: T24/EJ cell line originating from a human bladder carcinoma; test: Transfer of nucleic acid into cells: inhibition of cell proliferation induced by the antisense nucleic acid; assay type: cell-based; details: naked, 30 μM, 72 or 96 hours of culture
Procedure: The tests of nucleic acid transfer described in this example were performed on a cell line originating from a human bladder carcinoma, designated T24/EJ, available in the ATCC. The cells were cultured in MEM-EAGLE medium ("minimum essential medium", Biological Industries) supplemented with L-glutamine ((5 mM), streptomycin (50 u/ml) and penicillin (50 u/ml) in the presence of 7% of foetal calf serum decomplemented for 30 min at 60° C.
The cells (1500/well) were inoculated into 96-well microplates, in the absence or presence of nucleic acid, encapsulated or otherwise in nanoparticles, in a total volume of 100 μl. Each point was performed in triplicate. […]
In the first place, the incorporation of tritiated thymidine, which was determined after adding 2 μCi of 3 H thymidine per well. After 6 hours of incubation in an incubator, the plates were washed with a Skatron apparatus (Lier, Norway), the DNA was collected on a filter and each disc of the filter (corresponding to each well of the plate) was placed in scintillation fluid and then counted in a counter (LKB Wallac 1211 Minibeta). […]
Next, cell proliferation was evaluated by counting the cells in a Malassez cell. For this purpose, the supernatant was removed, the cells were trypsinized (10 min at 37° C.) and culture medium was added to them before they were counted.

[3] = study of the dichroic spectra: secondary structures adopted by the cationic oligopeptides; assay type: physicochemical
Description: The capacity of the oligopeptides to form secondary structures may be verified by circular dichroism or in NMR, as shown in the examples.
Moreover, as shown in the Table below, a study of the dichroic spectra enabled the secondary structures adopted by the cationic oligopeptides used, in solution or after complexing, to be confirmed.

physchem = details: water
[4] = solubility of the oligopeptide in water
[5] = 50 mM phosphate buffer/0.2 M NaCl

Molecule | secondary structure (dichroic spectra) ([3]; 50 mM phosphate buffer) | secondary structure (dichroic spectra) [3, 5] | secondary structure (dichroic spectra) ([3]; Water/nucleic acid) | conformation in saline solution [3] | conformation in water ([3]; water) | secondary structure (dichroic spectra) ([3]; water) | also measured
3'-CACACCGACGGCG-5' (chemistry not given here; listed 3' to 5') [INV-Val13] |  |  |  |  |  |  | encapsulation yield of INV-Val13 in the nanoparticle ([1]; in the presence of oligopeptide (LKKL)10, R=1, nucleic acid 10^-5 M): 56%; encapsulation yield of INV-Val13 in the nanoparticle ([1]; without the oligopeptide, nucleic acid 10^-5 M): 5%
3'-CGCGGCAGCCAC-5' (chemistry not given here; listed 3' to 5') [AS-Val12] |  |  |  |  |  |  | inhibition of cell proliferation [2]: 42%
CC(C)C[C@H](NC(=O)[C@H](CCCCN)NC(=O)[C@H](CCCCN)NC(=O)[C@H](CC(C)C)NC(=O)[C@H](CC(C)C)NC(=O)[C@H](CCCCN)NC(=O)[C@H](CCCCN)NC(=O)[C@H](CC(C)C)NC(=O)[C@H](CC(C)C)NC(=O)[C@H](CCCCN)NC(=O)[C@H](CCCCN)NC(=O)[C@H](CC(C)C)NC(=O)[C@H](CC(C)C)NC(=O)[C@H](CCCCN)NC(=O)[C@H](CCCCN)NC(=O)[C@H](CC(C)C)NC(=O)[C@H](CC(C)C)NC(=O)[C@H](CCCCN)NC(=O)[C@H](CCCCN)NC(=O)[C@H](CC(C)C)NC(=O)[C@H](CC(C)C)NC(=O)[C@H](CCCCN)NC(=O)[C@H](CCCCN)NC(=O)[C@H](CC(C)C)NC(=O)[C@H](CC(C)C)NC(=O)[C@H](CCCCN)NC(=O)[C@H](CCCCN)NC(=O)[C@H](CC(C)C)NC(=O)[C@H](CC(C)C)NC(=O)[C@H](CCCCN)NC(=O)[C@H](CCCCN)NC(=O)[C@H](CC(C)C)NC(=O)[C@H](CC(C)C)NC(=O)[C@H](CCCCN)NC(=O)[C@H](CCCCN)NC(=O)[C@H](CC(C)C)NC(=O)[C@H](CC(C)C)NC(=O)[C@H](CCCCN)NC(=O)[C@H](CCCCN)NC(=O)[C@@H](N)CC(C)C)C(=O)O [(LKKL)10, (H)-(Leucine-Lysine-Lysine-Leucine)10 -(OH)] (H-LKKLLKKLLKKLLKKLLKKLLKKLLKKLLKKLLKKLLKKL-OH) | α Helix | α Helix | α Helix | α-helical | unstructured | unstructured | solubility (physchem): 50 mg/mL (≈ 10.3 mM)
Polylysine [reference compound] |  |  |  | not structured |  |  | 

Further lines, with some results ahead:

secondary structure (dichroic spectra) ([3]; 50 mM phosphate buffer) | secondary structure (dichroic spectra) [3, 5] | secondary structure (dichroic spectra) ([3]; Water/nucleic acid) | conformation in saline solution [3] | conformation in water ([3]; water) | secondary structure (dichroic spectra) ([3]; water) | Molecule | also measured
β Sheet | β Sheet | β Sheet | β-sheet | unstructured | unstructured | CC(C)C[C@H](NC(=O)[C@H](CCCCN)NC(=O)[C@H](CC(C)C)NC(=O)[C@H](CCCCN)NC(=O)[C@H](CC(C)C)NC(=O)[C@H](CCCCN)NC(=O)[C@H](CC(C)C)NC(=O)[C@H](CCCCN)NC(=O)[C@H](CC(C)C)NC(=O)[C@H](CCCCN)NC(=O)[C@H](CC(C)C)NC(=O)[C@H](CCCCN)NC(=O)[C@H](CC(C)C)NC(=O)[C@H](CCCCN)NC(=O)[C@H](CC(C)C)NC(=O)[C@H](CCCCN)NC(=O)[C@H](CC(C)C)NC(=O)[C@H](CCCCN)NC(=O)[C@H](CC(C)C)NC(=O)[C@H](CCCCN)NC(=O)[C@H](CC(C)C)NC(=O)[C@H](CCCCN)NC(=O)[C@H](CC(C)C)NC(=O)[C@H](CCCCN)NC(=O)[C@H](CC(C)C)NC(=O)[C@H](CCCCN)NC(=O)[C@H](CC(C)C)NC(=O)[C@H](CCCCN)NC(=O)[C@H](CC(C)C)NC(=O)[C@H](CCCCN)NC(=O)[C@H](CC(C)C)NC(=O)[C@H](CCCCN)NC(=O)[C@H](CC(C)C)NC(=O)[C@H](CCCCN)NC(=O)[C@H](CC(C)C)NC(=O)[C@H](CCCCN)NC(=O)[C@H](CC(C)C)NC(=O)[C@H](CCCCN)NC(=O)[C@@H](N)CC(C)C)C(=O)N[C@@H](CCCCN)C(=O)O [(LKLK)10, (H)-(Leucine-Lysine-Leucine-Lysine)10 -(OH)] (H-LKLKLKLKLKLKLKLKLKLKLKLKLKLKLKLKLKLKLKLK-OH) | solubility [4]: 100 mg/mL (≈ 20.6 mM)
unstructured | unstructured | unstructured | not structured |  | unstructured | CC(C)C[C@H](NC(=O)[C@H](CCCCN)NC(=O)[C@H](CCCCN)NC(=O)[C@@H]1CCCN1C(=O)[C@H](CC(C)C)NC(=O)[C@H](CCCCN)NC(=O)[C@H](CCCCN)NC(=O)[C@@H]1CCCN1C(=O)[C@H](CC(C)C)NC(=O)[C@H](CCCCN)NC(=O)[C@H](CCCCN)NC(=O)[C@@H]1CCCN1C(=O)[C@H](CC(C)C)NC(=O)[C@H](CCCCN)NC(=O)[C@H](CCCCN)NC(=O)[C@@H]1CCCN1C(=O)[C@H](CC(C)C)NC(=O)[C@H](CCCCN)NC(=O)[C@H](CCCCN)NC(=O)[C@@H]1CCCN1C(=O)[C@H](CC(C)C)NC(=O)[C@H](CCCCN)NC(=O)[C@H](CCCCN)NC(=O)[C@@H]1CCCN1C(=O)[C@H](CC(C)C)NC(=O)[C@H](CCCCN)NC(=O)[C@H](CCCCN)NC(=O)[C@@H]1CCCN1C(=O)[C@H](CC(C)C)NC(=O)[C@H](CCCCN)NC(=O)[C@H](CCCCN)NC(=O)[C@@H]1CCCN1C(=O)[C@H](CC(C)C)NC(=O)[C@H](CCCCN)NC(=O)[C@H](CCCCN)NC(=O)[C@@H]1CCCN1C(=O)[C@H](CC(C)C)NC(=O)[C@H](CCCCN)NC(=O)[C@H](CCCCN)NC(=O)[C@@H]1CCCN1)C(=O)O [(PKKL)10, (H)-(Proline-Lysine-Lysine-Leucine)10 -(OH), reference compound] (H-PKKLPKKLPKKLPKKLPKKLPKKLPKKLPKKLPKKLPKKL-OH) | 
